Values of other authors as cited in US8592402B2, “Compounds as lysophosphatidic acid receptor antagonists” (Amira Pharmaceuticals, Inc., priority 2009, dated 2013).

Legend:
[1] = tested on: nerve-injured mice; conditions: pretreatment
[2] = tested on: UUO mice; conditions: compared with LPA1 (−/−) mice
[3] = tested on: pancreatic cancer cell lines; conditions: in response to LPA and peritoneal fluid (ascites) from pancreatic cancer patients
[4] = tested on: mouse epithelial renal cell line, MCT; conditions: LPA treatment of MCT cells, co-treatment
[5] = tested on: human foetal lung fibroblasts
[6] = tested on: highly peritoneal metastatic pancreatic cancer cell line; conditions: LPA-induced and ascites-induced

SMILES | allodynia and hyperalgesia [1] | development of renal fibrosis [2] | in vitro migration [3] | induction of CTGF expression [4] | fibroblast chemotactic activity ([5]; bronchoalveolar lavage samples of human subjects with IPF) | chemotaxis of human foetal lung fibroblasts ([5]; induced by BAL obtained from IPF patients) | invasion activity [6]
C[C@@H](N)[C@H]1CC[C@H](C(=O)Nc2ccncc2)CC1 [Compound Y-27632] | completely abolished |  |  |  |  |  | 
Cc1noc(-c2ccc(CSCCC(=O)O)cc2)c1NC(=O)OC(C)c1ccccc1Cl (stereo not shown) [Ki16425] |  | closely resembled the LPA1 (−/−) mice | effectively blocked | almost completely suppressed | inhibited | blocked | blocked
